In US8143243B2, “Compounds for the treatment of hepatitis C” (Bristol-Myers Squibb Company, priority 2007, dated 2012):
Read-outs that look alike come from different tables or passages of the source.

How the values were obtained:
[1] = test system: HCV replicon cells; test: HCV replicon FRET / luciferase assay; type: cell-based; conditions: Hepatitis C virus
From the text: FRET Assay Preparation. To perform the HCV FRET screening assay, 96-well cell culture plates were used. The FRET peptide (Anaspec, Inc.) (Taliani et al., Anal. Biochem. 1996, 240, 60-67) contains a fluorescence donor, EDANS, near one end of the peptide and an acceptor, DABCYL, near the other end. The fluorescence of the peptide is quenched by […] resonance energy transfer (RET) between the donor and the acceptor, but as the NS3 protease cleaves the peptide the products are released from RET quenching and the fluorescence of the donor becomes apparent. The assay reagent was made as follows: 5× cell Luciferase cell culture lysis reagent from Promega (#E153A) diluted to 1× with dH2O, NaCl added to 150 mM final, the FRET peptide diluted to 20 μM final from a 2 mM stock.
To prepare plates, HCV replicon cells, with or without a Renilla luciferase reporter gene, were trypsinized and placed into each well of a 96-well plate with titrated test compounds added in columns 3 through 12; columns 1 and 2 contained a control compound (HCV protease inhibitor), and the bottom row contained cells without compound. The plates were then placed in a CO2 incubator at 37° C.
Assays. Subsequent to addition of the test compounds described above (FRET Assay Preparation), at various times the plate was removed and Alamar blue solution (Trek Diagnostics, #00-100) was added per well as a measure of cellular toxicity. After reading in a Cytoflour 4000 instrument (PE Biosystems), plates were rinsed with PBS and then used for FRET assay by the addition of 30 ul of the FRET peptide assay reagent described above (FRET Assay Preparation) per well. The plate was then placed into the Cytoflour 4000 instrument which had been set to 340 excite/490 emission, automatic mode for 20 cycles and the plate read in a kinetic mode. Typically, the signal to noise using an endpoint analysis after the reads was at least three-fold. Alternatively, after Alamar blue reading, plates were rinsed with PBS, 50 ul of DMEM (high glucose) without phenol red was added and plates were then used for luciferase assay using the Promega Dual-Glo Luciferase Assay System.
Compound analysis was determined by quantification of the relative HCV replicon inhibition and the relative cytotoxicity values. To calculate cytoxicity values, the average Alamar Blue fluorescence signals from the control wells were set as 100% non-toxic. The individual signals in each of the compound test wells were then divided by the average control signal and multiplied by 100% to determine […]. To calculate the HCV replicon inhibition values, an average background value was obtained from the two wells containing the highest amount of HCV protease inhibitor at the end of the assay period. These numbers were similar to those obtained from naïve Huh-7 cells.
The background numbers were then subtracted from the average signal obtained from the control wells and this number was used as 100% activity. The individual signals in each of the compound test wells were then divided by the averaged control values after background subtraction and multiplied by 100% to determine percent activity. EC50 values for a protease inhibitor titration were calculated as the concentration which caused a 50% reduction in FRET or luciferase activity. The two numbers generated for the compound plate, percent cytoxicity and percent activity were used to determine compounds of interest for further analysis.

[2] = target: T1, HCV NS5B (Hepatitis C virus genotype 1b, UniProt Q9WMX2); test: HCV NS5B RdRp enzyme assay (standard / modified); type: biochemical
T1 construct: The protein was expressed with an 18 amino acid C-terminal truncation to enhance the solubility; made in house; host or cells: E. coli BL21 (DE3)
Procedure: HCV NS5B RdRp cloning, expression, and purification. The cDNA encoding the NS5B protein of HCV, genotype 1b, was cloned into the pET21a expression vector. The protein was expressed with an 18 amino acid C-terminal truncation to enhance the solubility. The E. coli competent cell line BL21 (DE3) was used for expression of the protein. Cultures were grown at 37° C. for ˜4 hours until the cultures reached an optical density of 2.0 at 600 nm. The cultures were cooled to 20° C. and induced with 1 mM IPTG. Fresh ampicillin was added to a final concentration of 50 μg/ml and the cells were grown overnight at 20° C.
Cell pellets (3 L) were lysed for purification to yield 15-24 mgs of purified NS5B. The lysis buffer consisted of 20 mM Tris-HCl, pH 7.4, 500 mM NaCl, 0.5% triton X-100, 1 mM DTT, 1 mM EDTA, 20% glycerol, 0.5 mg/ml lysozyme, 10 mM MgCl2, 15 ug/ml deoxyribonuclease I, and Complete TM protease inhibitor tablets (Roche). After addition of the lysis buffer, frozen cell pellets were resuspended using a tissue homogenizer. To reduce the viscosity of the sample, aliquots of the lysate were sonicated on ice using a microtip attached to a Branson sonicator. The sonicated lysate was centrifuged at 100,000×g for 1 hr at 4° C. and filtered through a 0.2 μm filter unit (Corning).
The protein was purified using three sequential chromatography steps: Heparin sepharose CL-6B, polyU sepharose 4B, and Hitrap SP sepharose (Pharmacia). The chromatography buffers were identical to the lysis buffer but contained no lysozyme, deoxyribonuclease I, MgCl2 or protease inhibitor and the NaCl concentration of the buffer was adjusted according to the requirements for charging the protein onto the column. Each column was eluted with a NaCl gradient which varied in length from 5-50 column volumes depending on the column type. After the final chromatography step, the resulting purity of the enzyme is >90% based on SDS-PAGE analysis. The enzyme was aliquoted and stored at −80° C.
Standard HCV NS5B RdRp enzyme assay. HCV RdRp genotype 1b assays were run in a final volume of 60 μl in 96 well plates (Costar 3912). The assay buffer is composed of 20 mM Hepes, pH 7.5, 2.5 mM KCl, 2.5 mM MgCl2, 1 mM DTT, 1.6 U RNAse inhibitor (Promega N2515), 0.1 mg/ml BSA (Promega R3961), and 2% glycerol. All compounds were serially diluted (3-fold) in DMSO and diluted further in water such that the final concentration of DMSO in the assay was 2%. HCV RdRp genotype 1b enzyme was used at a final concentration of 28 nM. A polyA template was used at 6 nM, and a biotinylated oligo-dT12 primer was used at 180 nM final concentration. Template was obtained commercially (Amersham 27-4110). Biotinylated primer was prepared by Sigma Genosys. 3H-UTP was used at 0.6 μCi (0.29 μM total UTP). Reactions were initiated by the addition of enzyme, incubated at 30° C. for 60 min, and stopped by adding 25 μl of 50 mM EDTA containing SPA beads (4 μg/μl, Amersham RPNQ 0007). Plates were read on a Packard Top Count NXT after >1 hr incubation at room temperature.
Modified HCV NS5B RdRp enzyme assay. A modified enzyme assay was performed essentially as described for the standard enzyme assay except for the following: The biotinylated oligo dT12 primer was precaptured on streptavidin-coated SPA beads by mixing primer and beads in assay buffer and incubating at room temperature for one hour. Unbound primer was removed after centrifugation. The primer-bound beads were resuspended in 20 mM Hepes buffer, pH 7.5 and used in the assay at final concentrations of 20 nM primer and 0.67 μg/μl beads. Order of addition in the assay: enzyme (14 nM) was added to diluted compound followed by the addition of a mixture of template (0.2 nM), 3H-UTP (0.6 μCi, 0.29 μM), and primer-bound beads, to initiate the reaction; concentrations given are final. Reactions were allowed to proceed for 4 hours at 30° C.
IC50 values for compounds were determined using seven different [I]. […]

[3] = HCV replicon cells, FRET or luciferase readout, read-out: EC50
[4] = HCV RdRp genotype 1b enzyme, read-out: IC50

T1 sequence (Q9WMX2 2420-2992): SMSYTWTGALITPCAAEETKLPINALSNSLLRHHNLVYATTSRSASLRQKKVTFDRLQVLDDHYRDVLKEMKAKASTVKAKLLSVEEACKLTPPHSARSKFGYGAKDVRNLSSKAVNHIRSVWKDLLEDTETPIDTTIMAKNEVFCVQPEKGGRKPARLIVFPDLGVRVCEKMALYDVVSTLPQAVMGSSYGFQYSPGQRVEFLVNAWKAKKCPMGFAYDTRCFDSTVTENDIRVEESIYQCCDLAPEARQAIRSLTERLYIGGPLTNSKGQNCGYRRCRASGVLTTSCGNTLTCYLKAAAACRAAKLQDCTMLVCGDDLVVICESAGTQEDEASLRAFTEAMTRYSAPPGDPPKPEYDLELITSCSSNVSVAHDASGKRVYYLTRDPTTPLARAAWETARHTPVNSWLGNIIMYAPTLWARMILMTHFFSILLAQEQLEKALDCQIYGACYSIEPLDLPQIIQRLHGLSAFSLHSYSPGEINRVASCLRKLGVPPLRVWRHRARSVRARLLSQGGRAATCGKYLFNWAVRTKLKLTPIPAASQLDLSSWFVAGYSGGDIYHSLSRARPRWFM

SMILES | EC50 [1] [nM] | IC50 [2] [nM] | EC50 [1, 3] [nM] | IC50 [2, 4] [nM]
COc1ccc2c(c1)C=C(c1c(C(=O)N3[C@@H]4CC[C@H]3C[C@@](C)(O)C4)cnn1C(C)C)Cn1c-2c(C2CCCCC2)c2ccc(C(=O)NS(=O)(=O)CC(C)C)cc21 | 1 to 500 | 1 to 500 |  | 
COC(=O)c1ncoc1C1=Cc2cc(OC)ccc2-c2c(C3CCCCC3)c3ccc(C(=O)OC(C)(C)C)cc3n2C1 |  |  | > 40 | > 40
COc1ccc2c(c1)C=C(c1c(C(=O)N3CCN(C(C)C)CC3)cnn1C)Cn1c-2c(C2CCCCC2)c2ccc(C(=O)NS(=O)(=O)C(C)C)cc21 |  |  | 1 to 500 | 1 to 500
COc1ccc2c(c1)C=C(c1c(C(=O)N3CCOCC3)cnn1C1CC1)Cn1c-2c(C2CCCCC2)c2ccc(C(=O)NS(=O)(=O)C(C)C)cc21 |  |  | 1 to 500 | 1 to 500
COc1ccc2c(c1)C=C(c1c(C(=O)N3CC4CCC(C3)N4C)c(C(F)(F)F)nn1C)Cn1c-2c(C2CCCCC2)c2ccc(C(=O)NS(=O)(=O)C(C)C)cc21 | 1 to 500 | 1 to 500 |  | 
COc1ccc2c(c1)C=C(c1c(C(=O)N3C[C@@H](C)N(C)[C@@H](C)C3)c(C(F)(F)F)nn1C)Cn1c-2c(C2CCCCC2)c2ccc(C(=O)NS(=O)(=O)C(C)C)cc21 |  |  | 1 to 500 | 1 to 500
COc1ccc2c(c1)C=C(c1c(C(=O)N3CCCC(N(C)C)C3)cnn1C)Cn1c-2c(C2CCCCC2)c2ccc(C(=O)NS(=O)(=O)C(C)C)cc21 (stereo not shown) |  |  | 1 to 500 | 1 to 500
CCOC(=O)c1cnn(C)c1C1=Cc2cc(OC)ccc2-c2c(C3CCCCC3)c3ccc(C(=O)NS(=O)(=O)C(C)C)cc3n2C1 |  |  | 1 to 500 | 1 to 500
COc1ccc2c(c1)C=C(c1c(C(=O)N3C4COCC3COC4)cnn1C)Cn1c-2c(C2CCCCC2)c2ccc(C(=O)NS(=O)(=O)CC(C)C)cc21 | 1 to 500 | 1 to 500 |  | 
COc1ccc2c(c1)C=C(c1sccc1C(=O)O)Cn1c-2c(C2CCCCC2)c2ccc(C(=O)NS(=O)(=O)C(C)C)cc21 |  |  | > 40 | 1 to 500
COc1ccc2c(c1)C=C(c1c(C(=O)N3C[C@@H](C)O[C@@H](C)C3)c(C)nn1C(C)C)Cn1c-2c(C2CCCCC2)c2ccc(C(=O)NS(=O)(=O)C(C)C)cc21 |  |  | 1 to 500 | 1 to 500
COc1ccc2c(c1)C=C(c1c(C(=O)N3C4CCC3CC(C)(O)C4)cnn1CC(F)(F)F)Cn1c-2c(C2CCCCC2)c2ccc(C(=O)NS(=O)(=O)C(C)C)cc21 (stereo not shown) | 1 to 500 | 1 to 500 |  | 
COc1ccc2c(c1)C=C(c1ccsc1C(=O)N1CCOCC1)Cn1c-2c(C2CCCCC2)c2ccc(C(=O)NS(=O)(=O)N(C)C)cc21 |  |  | 1 to 500 | 1 to 500
COC[C@@H]1CN(C(=O)c2cnn(C(C)C)c2C2=Cc3cc(OC)ccc3-c3c(C4CCCCC4)c4ccc(C(=O)NS(=O)(=O)C(C)C)cc4n3C2)CCO1 |  |  | 1 to 500 | 1 to 500
CCn1ncc(C(=O)N2CCO[C@@H](COC)C2)c1C1=Cc2cc(OC)ccc2-c2c(C3CCCCC3)c3ccc(C(=O)NS(=O)(=O)C(C)C)cc3n2C1 |  |  | 1 to 500 | 1 to 500
COC[C@@H]1CN(C(=O)c2cnn(CC(F)(F)F)c2C2=Cc3cc(OC)ccc3-c3c(C4CCCCC4)c4ccc(C(=O)NS(=O)(=O)C(C)C)cc4n3C2)CCO1 |  |  | 1 to 500 | 1 to 500
COc1ccc2c(c1)C=C(c1c(C(=O)N3CCOCC3)cnn1C)Cn1c-2c(C2CCCCC2)c2ccc(C(=O)NS(=O)(=O)C(C)C)cc21 |  |  | 1 to 500 | 1 to 500
COc1ccc2c(c1)C=C(c1c(C(=O)N3C4COCC3COC4)cnn1C)Cn1c-2c(C2CCCCC2)c2ccc(C(=O)NS(=O)(=O)C3CCCC3)cc21 | 1 to 500 | 1 to 500 |  | 
COc1ccc2c(c1)C=C(c1c(C(=O)N3C4C=C(C)CC3CC4)cnn1C(C)C)Cn1c-2c(C2CCCCC2)c2ccc(C(=O)NS(=O)(=O)C(C)C)cc21 (stereo not shown) | 1 to 500 | 1 to 500 |  | 
COc1ccc2c(c1)C=C(c1c(C(=O)N3C4CCC3CN(C)C4)ccn1C(C)C)Cn1c-2c(C2CCCCC2)c2ccc(C(=O)NS(=O)(=O)C(C)C)cc21 | 1 to 500 | 1 to 500 |  | 
COc1ccc2c(c1)C=C(c1c(C(=O)N3[C@@H]4CC[C@H]3CN(C)C4)cnn1C(C)C)Cn1c-2c(C2CCCCC2)c2ccc(C(=O)NS(=O)(=O)CC(C)C)cc21 | 1 to 500 | 1 to 500 |  | 
COc1ccc2c(c1)C=C(c1c(C(=O)N3CCN(C)CC3)c(C(F)(F)F)nn1C)Cn1c-2c(C2CCCCC2)c2ccc(C(=O)NS(=O)(=O)C(C)C)cc21 |  |  | 1 to 500 | 1 to 500
COc1ccc2c(c1)C=C(c1c(C(=O)N3C4CCC3CN(C)C4)cnn1C)Cn1c-2c(C2CCCCC2)c2ccc(C(=O)NS(=O)(=O)C(C)C)cc21 | 1 to 500 | 1 to 500 |  | 
COc1ccc2c(c1)C=C(c1c(C(=O)N3CCOCC3)c(C(F)(F)F)nn1C)Cn1c-2c(C2CCCCC2)c2ccc(C(=O)NS(=O)(=O)C(C)C)cc21 |  |  | 1 to 500 | < 20
COc1ccc2c(c1)C=C(c1c(C(=O)N3C[C@@H]4C[C@H]3CO4)cnn1C(C)C)Cn1c-2c(C2CCCCC2)c2ccc(C(=O)NS(=O)(=O)C(C)C)cc21 |  |  | 1 to 500 | 1 to 500
COc1ccc2c(c1)C=C(c1c(C(=O)N3C[C@@H]4C[C@H]3CO4)c(C)nn1C(C)C)Cn1c-2c(C2CCCCC2)c2ccc(C(=O)NS(=O)(=O)C(C)C)cc21 |  |  | 1 to 500 | 1 to 500
